Columns and labels:
[1] = test system: SHSY5Y overexpressing A53T eGFP; assay: Amount of aggregated α-syn in differentiated cells overexpressing A53T eGFP, confocal microscopy; assay type: cell-based; conditions: for amount of α-syn aggregated in the cells: Src KD SHSY5Y overexpressing A53T eGFP, 50 μM retinoid acid, differentiated 5 days
SHSY5Y cell line = assay: α-syn intercellular migration, two-chamber co-culture, immunostaining and confocal microscopy; assay type: cell-based; conditions: 0.1 μM saracatinib, 10 μM SKI; co-culture 12 hours with SHSY5Y overexpressing α-syn; vs PBS control
Description: The SHSY5Y cell overexpressing alpha-synuclein was seeded at 4×10^4 in a 12-well plate in an insert well using a two-chamber system, and the SHSY5Y cell line was seeded at 4×10^4 on the cover glass. The next day, the insert well was transferred to a 12-well cover glass, and during co-culture for 12 hours, the SHSY5Y cell line was treated with 0.1 μM saracatinib and 10 μM SKI (c-src kinase inhibitor I), which are c-src inhibitors, and then alpha-synuclein in SHSY5Y cell line on the cover glass was immunostained (α-syn: red, nucleus: blue) and observed using a confocal microscope to confirm that alpha-synuclein was migrated from SHSY5Y overexpressing alpha-synuclein to SHSY5Y not overexpressing alpha-synuclein.
Next, c-src knockdown SHSY5Y cell lines (KD #1 and KD #2), constructed using shRNAs of […], and dopaminergic neuronal cell line SHSY5Y overexpressing α-syn were co-cultured for 12 hours using a two-chamber system. The co-culture will be described in brief. SHSY5Y cells were seeded at a concentration of 4×10^4 cells/well on a 12-well cover glass. […]

| Compound | amount of α-syn aggregated in the cells [1] | amount of aggregated α-syn ([1]; 10 μM SKI, 0.5 μM saracatinib, differentiated with 50 μM RA) | migration of α-syn (SHSY5Y cell line) |
| --- | --- | --- | --- |
| SEQ ID NO: 1: shRNA against c-src: CCGGGCUCGGCUCAUUGAAGACAAUCUCGAGAUUGUCUUCAAUGAGCCGAGCUUUUUG | decreased | – | – |
| COc1cc2ncnc(Nc3ccc(Oc4ccccc4)cc3)c2cc1OC [SKI] | – | decreased | reduced |
| SEQ ID NO: 2: shRNA against c-src: CCGGGACAGACCUGUCCUUCAAGAACUCGAGUUCUUGAAGGACAGGUCUGUCUUUUUG (listed as RNA, chemistry not fully specified) | decreased | – | – |
